Measured values as given in US11832638B2, “N-acyl derivatives of gamma amino-butyric acid and beta alanine as food flavouring compounds” (GIVAUDAN SA, priority 2012, dated 2023).

Columns and labels:
[1] = Tasting in low fat mayonnaise; conditions: 0.5 ppm in low fat mayonnaise (27% fat)
Method: (§1) The following formulations were prepared and tasted by trained panelists.
Fat levels between 10-80%
Low fat Mayonnaise (27% Fat)

Tasting in cheese sauce = conditions: 0.5 PPM in cheese sauce 5% fat 1.6% salt
Method: as §1
Cheese sauce: 5% fat 1.6% salt

[2] = Comparison in a strawberry drink; conditions: 2 ppm, 7% sucrose, 0.1% citric acid, strawberry flavour 0.015%
Excerpt: Comparison in a Strawberry Drink
Base is 7% sucrose, 0.1% citric acid, and a proprietary strawberry flavour @0.015%

[3] = Yoghurt cream flavoured non-sweetened, different fat levels; conditions: 2 ppm, cream flavour 0.03%
Method: Yoghurt Cream Flavoured Non-sweetened And Different Fat Levels
In a Yoghurt containing 0% 1.5% and 3% fat, flavoured with proprietary cream flavour dosed at 0.03%, C18:2-gaba was added at 2 ppm. Samples were evaluated by expert tasters. Tasters were asked to describe the samples focusing on authentic taste, mouthfeel, fullness, salivation, sweetness, juiciness, richness, long lastingness and fattiness.

[4] = Tasting in spreadable cheese ERU; conditions: 0.5 PPM in spreadable cheese ERU
Method: as §1

[5] = Tasting in pilaf (cooked rice with flavoured butter); conditions: standard cooked rice with 10% of the C18:2-gaba flavoured butter
Method: as §1

[6] = Calve salad dressing low fat; conditions: 0.5 ppm
Excerpt: Calve Salad Dressing Low Fat:
Base is Calve salad dressing (market product)

[7] = Calve 60% reduced fat mayonnaise; conditions: 0.5 ppm, Calve mayonnaise 60% reduced fat
Excerpt: Calve 60% Reduced Fat Mayonnaise
Base is Calve Mayonnaise 60% reduced fat (market Product)

[8] = Chocolate milk with different fat content
Method: Chocolate Milk With Different Fat Content
In a chocolate milk 1.8% and 3% fat C18:2-gaba was added at 0.5 and 1 ppm.
(§2) Samples were evaluated by expert tasters. Tasters were asked to describe the samples focusing on authentic taste, mouthfeel, fullness, salivation, sweetness, juiciness, richness, long lastingness and fattiness.

[9] = Test on organic acids in a beverage; conditions: 1 ppm, water, 7% sucrose
Method: Testing With Beverages Containing Organic Acids From 0.01% to 7%
Test 18:2 Gaba on Organic Acids in a Beverage.
In a solution containing water, 7% sucrose by weight, and different organic acids, C18:2-gaba was added at 1 ppm. We observed taste effects on the acid perception upon addition of C18:2-gaba.
Base is water, 7% Sucrose by weight, Tartaric acid at 0.121% by weight
Base is water, 7% Sucrose by weight, Malic acid at 0.1081% by weight
Base is water, 7% Sucrose by weight, Citric acid at 0.1% by weight
Base is water, 7% Sucrose by weight, Fumaric acid at 0.0936% by weight

Test in vanilla milk = conditions: 2 ppm, milk 0.15% fat, 4% sucrose, Vaniline flavour 10 ppm + vanilla ext. 0.03%
Excerpt: Base: Milk 0.15% fat, sweetened with 4% sucrose by weight, flavoured with proprietary
Vaniline flavour @ 10 ppm+Vanilla ext. @ 0.03%

[10] = Comparison in a mango juice drink; conditions: 2 ppm, 8% sucrose, 0.1% citric acid, 0.18 g clear mango juice, mango flavour 0.05%
Excerpt: Comparison in a Mango Juice Drink
Base is 8% sucrose, 0.1% citric acid, 0.18 g clear mango juice, and a proprietary mango flavour at 0.05%.

Test on Heineken beer = conditions: 0.5 ppm
Method: In Heineken beer (Market Product) C18:2-gaba was added at 0.5 ppm.
Samples were evaluated by expert tasters. Tasters were asked to describe the samples focusing on authentic taste, alcohol impact, malt taste, hop taste, mouthfeel, fullness, salivation, sweetness, bitterness, richness, long lastingness and fattiness.

[11] = Test in chocolate flavoured drink; conditions: 2 ppm, water, 4% sucrose, chocolate flavour 0.03%
Excerpt: Test in Chocolate Flavoured Drink:
Base: Water, 4% sucrose, proprietary chocolate flavour at 0.03%

[12] = Tasting in fried potato snack product with cheese seasoning; conditions: fried potato base 35% fat
Method: Snack Product A snack product consisting of a fried potato base, containing 35% fat and flavored with cheese seasoning containing salt, MSG, dairy, organic acids, sugars, and a flavour formulation. The following compounds were added to the snack product at the indicated levels and the tasting results arc reported: […]

[13] = Activa strawberry yoghurt; conditions: 2 ppm, full fat Activa strawberry flavoured yoghurt
Excerpt: Activa Strawberry Yoghurt
In a Full fat, Activa strawberry flavoured yoghurt C18:2-gaba

[14] = Test in pineapple flavoured drink; conditions: 1 ppm, water, 8% sugar, 0.1% citric acid, pineapple flavour 0.03%
Excerpt: Test in Pineapple Flavoured Drink:
Base is water, 8% sugar, 0.1% citric acid and proprietary pineapple flavour at 0.03%

[15] = Tasting in standard chicken bouillon base; conditions: 0.5 PPM in standard chicken bouillon base, 0.7% salt, 0.5% fat
Method: as §1
Standard Chicken bouillon base, 0.7% salt, 0.5% fat

Test in 3 in 1 coffee = conditions: 1 ppm, 3-in-1 coffee beverage with sucrose and creamer with fat
Method: In a 3 in 1 Coffee beverage from Nestle (market product) sweetened with sucrose and containing creamer with fat C18:2-gaba was added.
as §2
Base is 3-in-1 Coffee beverage (market product) sweetened with sucrose and containing creamer with fat

[16] = Test on menthol fondant (1%); conditions: 2 ppm, fondant 65%, sugar syrup 34%, menthol flavour 1%
Excerpt: Test on Menthol Fondant (1%)
Base is Fondant 65%, sugar syrup 34% and a proprietary menthol flavour at 1%

[17] = Test in pear flavoured drink; conditions: 1 ppm, water, 7% sugar, 0.1% citric acid, pear flavour 0.025%
Excerpt: Test in Pear Flavoured Drink:
Base: water, 7% sugar, 0.1% citric acid, proprietary pear flavour at 0.025%

[18] = Tasting in butter (Blueband halvarine); conditions: 1 ppm in Blueband halvarine 39% fat 0.35% salt
Method: as §1
Blueband “halvarine” 39% fat 0.35% salt
C18:2-gaba added at 1 ppm.

CCCCC/C=C\C/C=C\CCCCCCCC(=O)NCCCC(=O)O [C18:2-gaba]
tasting result (trained panelists) [1]: creamy, thick mouthfeel with a full fat impression | tasting result (trained panelists) (Tasting in cheese sauce): Full, Salty, cheese bite expanding | taste description [2]: fatty mouthfeel, creamy strawberry, fruity and juicy | description by expert tasters ([3]; yoghurt 0% fat): less acdic, slight creamy aftertaste | description by expert tasters ([3]; yoghurt 1.5% fat): very creamy, thick, nice long lasting, whipped cream note | description by expert tasters ([3]; yoghurt 3% fat): less acidic, much more creamy, very long lasting creamy aftertaste | tasting result (trained panelists) [4]: Full, Salty, cheese bite, more mature | tasting result (trained panelists) [5]: more mouthfeel, with a lingering creamy authentic butter taste | taste description [6]: much fuller, creamy, rich, less acidic | taste description [7]: full, rich , creamy, more egg yolk taste | description by expert tasters ([8]; 0.5 ppm, chocolate milk 1.8% fat): stronger cocoa note, more chocolate vs cocoa | description by expert tasters ([8]; 0.5 ppm, chocolate milk 3% fat): very creamy, enhanced cocoa note | description by expert tasters ([8]; 1 ppm, chocolate milk 1.8% fat): very creamy, chocolate, long-lasting creamy and chocolate taste | description by expert tasters ([8]; 1 ppm, chocolate milk 3% fat): very creamy, lasting, sweet, almost taste like chocolate ice cream | taste effects on the acid perception ([9]; citric acid 0.1% by weight): decreased sharp acidic perception, full body mouthfeel, higher higher mouth watering, and an impression of the juicy notes of citrus fruit (orange, lemon) | taste effects on the acid perception ([9]; fumaric acid 0.0936% by weight): decreased sharp acidic perception, full body mouthfeel effects, higher sweet effects, and an impression of the full notes characteristic of sweet red & vanillic flavor types (vanilla, chocolate, raspberry, cherry, especially benzaldhyde) | taste effects on the acid perception ([9]; malic acid 0.1081% by weight): decreased sharp acidic perception, give fuller body, mouthfeel, higher mouthwatering, and an impression of the flesh and skin notes of fruit (apple) | taste effects on the acid perception ([9]; tartaric acid 0.121% by weight): decreased sharp acidic perception, full body mouthfeel, higher mouthwatering, more immediate (upfront hit), and an impression of the flesh of fruit (grape, apple, banana, pear-like) | taste description (Test in vanilla milk): fatty, long lasting authentic vanilla, vanilla bean taste is enhanced | taste description [10]: full long lasting nice juicy, almost a bit salty | taste description ([10]; listed as C18:2 gaba): fatty skin like, juicy, authentic | description by expert tasters (Test on Heineken beer): more hoppy, more bitter, more malt and stronger alcohol impact | taste description [11]: full, sweeter, more vanillic, milk chocolate is enhanced, very long lasting | tasting result ([12]; 0.5 ppm): increased dairy, cheesy | tasting result ([12]; 1 ppm): Fatty full, cheesy, cheese crust, long lasting | taste description [13]: very creamy, full and fresh strawberry | taste description [14]: very ripe, jammy, long lasting and sweet | tasting result (trained panelists) [15]: Strong, Salty, Umami, mouthfeel | description by expert tasters (Test in 3 in 1 coffee): very nice mouthfeel effect, creamy as if coffee creamer is added, more sweet | taste description [16]: increased menthol impact, stronger cooling more sweet, long lasting, fresh | taste description [17]: long lasting, juicy and fatty skin like very authentic, like eating the fruit instead of drinking a drink | tasting result (trained panelists) [18]: more authentic butter taste, with more mouthfeel
